Experimental data taken from patent publication US12048751B2, “Compositions and methods for assessing gut function” (MediBeacon Inc., priority 2013, dated 2024).

Key:
[1] = Light absorption and emission maxima of the fluorescent challenge molecule; format: physicochemical
Description: (§1) Example 1 may be categorized as fluorescent challenge molecule is not substantially absorbed by a healthy gut.
Example 2 may be categorized as fluorescent challenge molecule is not substantially absorbed by a healthy gut as the molecular weight is relatively high (344 g/mol).
(§2) Example 3 may be categorized as fluorescent challenge molecule that is substantially absorbed by a healthy gut as the molecular weight is relatively low (198 g/mol).

[2] = Plasma concentration vs. time after single intravenous and oral dose (IV and oral clearance); format: in vivo, Sprague-Dawley rats; conditions: rats having "normal" gut function; single dose given intravenously and orally (FIG. 3)
Description: as §1

[3] = Clearance from the body followed by fluorescence signal, with and without ligated kidneys; format: in vivo; conditions: for clearance pathway from the body: fluorescence signal over time
Description: as §2

Compound	light absorption maximum [1]	light emission maximum [1]	oral bioavailability [2]	clearance pathway from the body [3]	clearance pathway from the body ([3]; listed as Example Compound 3)	fluorescence signal when the kidneys are ligated ([3]; kidneys ligated, no excretion pathway)
Nc1nc(C(=O)N[C@H](CO)C(=O)O)c(N)nc1C(=O)N[C@H](CO)C(=O)O [Example 1, 3,6-diamino-2,5-bis{N-[(1R)-1-carboxy-2-hydroxyethyl]carbamoyl}pyrazine]	445 nm	560 nm	very little	–	–	–
NC(=O)c1nc(NCC(O)CO)c(C(N)=O)nc1NCC(O)CO (stereo not shown) [Example 2, 3,6-N,N′-bis(2,3-dihydroxypropyl)-2,5-pyrazinedicarboxamide]	486 nm	600 nm	–	–	–	–
Nc1nc(C(=O)O)c(N)nc1C(=O)O [Example 3, 3,6-diaminopyrazine-2,5-dicarboxylic Acid]	396 nm	536 nm	–	clears from the body by the renal system	clears from the body via the renal system	stays elevated
